Results taken from ChEMBL document CHEMBL3886965, “Naphthylurea derivatives and medical applications thereof” (2016).

Target: Platelet-derived growth factor receptor beta (Homo sapiens, UniProt P09619)
Test: The rest of the stock solutions was storaged at ⿿20° C. after subpackage.

Platelet-derived growth factor receptor beta, sequence (P09619 whole entry): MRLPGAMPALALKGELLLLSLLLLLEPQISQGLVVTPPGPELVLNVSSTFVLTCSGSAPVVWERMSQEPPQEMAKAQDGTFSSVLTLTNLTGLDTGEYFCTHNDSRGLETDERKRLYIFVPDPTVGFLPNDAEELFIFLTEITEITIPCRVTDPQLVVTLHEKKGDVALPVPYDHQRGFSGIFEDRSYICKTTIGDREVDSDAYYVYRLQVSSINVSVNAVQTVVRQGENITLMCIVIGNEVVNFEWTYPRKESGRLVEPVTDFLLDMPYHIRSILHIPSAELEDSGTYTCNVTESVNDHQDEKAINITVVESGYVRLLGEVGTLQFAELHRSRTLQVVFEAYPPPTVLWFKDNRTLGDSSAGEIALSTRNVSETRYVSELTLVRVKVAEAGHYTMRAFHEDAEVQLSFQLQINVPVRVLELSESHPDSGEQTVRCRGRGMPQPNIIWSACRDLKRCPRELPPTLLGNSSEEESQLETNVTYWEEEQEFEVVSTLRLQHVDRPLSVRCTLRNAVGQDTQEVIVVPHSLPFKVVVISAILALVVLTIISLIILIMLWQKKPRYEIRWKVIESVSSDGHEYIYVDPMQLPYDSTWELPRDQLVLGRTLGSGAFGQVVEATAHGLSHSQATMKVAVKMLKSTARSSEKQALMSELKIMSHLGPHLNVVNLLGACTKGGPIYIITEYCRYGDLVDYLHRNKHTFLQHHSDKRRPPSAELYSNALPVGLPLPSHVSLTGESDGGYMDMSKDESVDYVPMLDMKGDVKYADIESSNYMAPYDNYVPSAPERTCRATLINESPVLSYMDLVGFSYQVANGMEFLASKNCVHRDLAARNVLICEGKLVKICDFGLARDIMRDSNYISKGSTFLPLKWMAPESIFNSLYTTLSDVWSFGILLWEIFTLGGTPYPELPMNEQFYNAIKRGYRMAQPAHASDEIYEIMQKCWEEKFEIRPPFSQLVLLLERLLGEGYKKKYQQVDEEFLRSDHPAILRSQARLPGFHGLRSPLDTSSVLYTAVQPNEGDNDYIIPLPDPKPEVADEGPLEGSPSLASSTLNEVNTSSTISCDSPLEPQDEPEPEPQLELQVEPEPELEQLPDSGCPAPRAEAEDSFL

| SMILES | IC50 |
| --- | --- |
| Cc1ccc(F)c(NC(=O)Nc2ccc(-c3ccc(OCCCN4CCCC4)c4[nH]nc(N)c34)c3ccccc23)c1 | 16.3 nM |
| Cc1cccc(NC(=O)Nc2ccc(-c3ccc(OCCCN4CCCC4)c4[nH]nc(N)c34)c3ccccc23)c1 | 45.4 nM |
| Cc1ccc(F)c(NC(=O)Nc2ccc(-c3ccc(OCCC(C)(C)N)c4[nH]nc(N)c34)c3ccccc23)c1 | 106 nM |
| Cc1cccc(NC(=O)Nc2ccc(-c3cncc4[nH]nc(N)c34)c3ccccc23)c1 | 6.7 nM |
| Cc1ccc(F)c(NC(=O)Nc2ccc(-c3cncc4[nH]nc(N)c34)c3ccccc23)c1 | 25.4 nM |
| Cc1cccc(NC(=O)Nc2ccc(-c3ccc(OCCC(C)(C)N)c4[nH]nc(N)c34)c3ccccc23)c1 | 155 nM |
